# Source: patent publication US20100092456A1, “METHODS OF TREATMENT” (priority 2006, published 2010)
# Columns and labels:
# ING2 = assay: Western blot of endogenous ING2 associated with the CEF of MEL cells; format: cell-based, Murine; conditions: differentiated MEL cells; H2O2 500 μM, 15 minutes
# Protocol: FIG. 4. A) Exponentially growing MEL cells were irradiated with either 200 J/m of UV light or 10 Gy of gamma radiation. After 30 minutes the CEF was isolated and the subjected to SDS-PAGE followed by transfer of the separated proteins to a nitrocellulose membrane. Western blotting for endogenous ING2 and histone 4 proteins was performed. Representative western blots are shown. B) Exponentially growing MEL cells were incubated in the absence or presence of N-acetyl cysteine (NAC) (5 mM) for 4 hours prior to a control irradiation or exposed to 200 J/m of UV light before the isolation of the CEF. Differentiated MEL cells were incubated in the absence or presence of H2O2 (500 μM) for 15 minutes prior to the isolation of the CEF. Proteins in the CEF were subjected to SDS-PAGE followed by transfer to a nitrocellulose membrane. Western blotting for endogenous ING2 and histone 4 proteins was performed. Representative western blots are shown. C) MEL cells were preincubated with either vehicle, wortmannin (200 nM and 5 μM) or curcumin (100 μM) were irradiated with 200 J/m of UV light. After 30 minutes the CEF was isolated and proteins were subjected to SDS-PAGE followed by transfer to a nitrocellulose membrane. Western blotting for endogenous ING2 and histone 4 proteins was performed. Representative western blots are shown. D) The CEF from transiently transfected MEL cells with either pSuper or pSuper-IIβRNAi was prepared. Proteins in the CEF were subjected to SDS-PAGE followed by transfer to a nitrocellulose membrane. […] Proteins were analysed by standard western blotting procedures employing the following antibodies: anti-tubulin and anti-flag (both from Sigma), anti-actin (Chemicon International), anti-histone 4 (Upstate Biotechnology), anti-phospho p54, anti-phospho p46, anti-phospho p38, total p54, total p46 and total p38 (all from Cell Signalling Technology) anti-ING2, anti EGFP (Clontech), anti-type II β PIP kinase, anti-GST and anti-myc (both generated in house).
# [1] = tested on: PtdIns(4,5)P2 in HeLa cells; assay: PtdIns(4,5)P2 levels visualised with GFP-PH domain of PLCdelta1 probe in HeLa cells; format: cell-based; conditions: 600 microMolar H2O2, no recovery hours after stimulation
# Text: Changes in intracellular PtdIns(4,5)P2 levels following stimulation with neurokinin A were visualised in real time using a fusion protein of GFP and the PH domain of PLCdelta1 as a probe. GFP PLC delta 1 is a highly specific in vivo probe for PIP2 in cells.
# HeLa cells were transiently transfected with an expression plasmid encoding a fusion protein of GFP and the PH domain of PLCdelta1.
# HeLa cells were transiently transfected with an expression plasmid encoding a fusion protein of GFP and the pleckstrin homology domain of PLCdelta1. GFP PLC delta1 is a highly specific in vivo probe for PtdIns(4,5)P2 in cells. Results are in FIG. 10.
smiles,measurement,setting,value
OO [H2O2],ING2 translocation to the CEF,ING2,stimulated
same,"PtdIns(4,5)P2 levels (GFP-PH probe at plasma membrane)",[1],sustained depletion
